The values below are quoted from earlier work in patent US20110034521A1, “COMPOUNDS AND METHODS FOR TREATING ZINC MATRIX METALLOPROTEASE DEPENDENT DISEASES” (priority 2007, published 2011).

For data set [1] the following is noted: Wojtowwicz-Praga et al. 1997.
The conditions of data set [2]: Sparano et al. 2004.

`CNC(=O)[C@H](Cc1ccccc1)NC(=O)[C@H](CC(C)C)[C@H](CSc1cccs1)C(=O)NO` [Batismastat]: the water solubility result in data set [1] is recorded as “poor water solubility”.
With `CNC(=O)[C@@H](NC(=O)[C@H](CC(C)C)[C@H](O)C(=O)NO)C(C)(C)C` [Marimastat], the toxicity entry in data set [2] is listed as “musculoskeletal toxicity”.
